In brackets after ≈: the same amount, converted by molar mass. Activity calls are given as the source filed them. The calls are words filed in the database; no cut-off is given here.
Columns and labels:
Staphylococcus aureus [1] = test: Antibacterial activity against methicillin resistant Staphylococcus aureus ATCC 33592 infected in cyclophosphamide-induced immunosuppressed Kunming mouse by measuring survival rate of mouse at 10 mg/kg,po administration measured for 7 days; type: functional; conditions: ATCC 33592, 168 h, time 7 day
[2] = Tmax in BALB/c mouse at 10 mg/kg,po administration measured upto 24 hrs by LC-MS/MS analysis; type: ADME, organism-based; conditions: in vivo
Staphylococcus aureus [3] = test: (§1) Antibacterial activity against methicillin resistant Staphylococcus aureus ATCC 33592 infected in cyclophosphamide-induced immunosuppressed Kunming mouse assessed as appearance of inflated alveoli in lung at 50 mg/kg,po administration measured after 24 hrs by hematoxylin and eosin staining based microscopy; type: functional, organism-based
[4] = Terminal half life in BALB/c mouse at 1 mg/kg,iv administration measured upto 24 hrs by LC-MS/MS analysis; type: ADME, organism-based; conditions: in vivo, read-out: beta t1/2 (converted)
Enterococcus faecalis = test: Antibacterial activity against Linezolid resistant Enterococcus faecalis clinical isolate 20-2 assessed as inhibition of bacterial growth incubated for 7 days by alamar blue assay; type: functional; conditions: clinical isolate 20-2, 168 h, time 7 day
Enterococcus = test: Antibacterial activity against vancomycin resistant Enterococcus clinical isolate 20-1 assessed as inhibition of bacterial growth incubated for 7 days by alamar blue assay; type: functional; conditions: clinical isolate 20-1, 168 h, time 7 day
[5] = Cmax in BALB/c mouse at 1 mg/kg,iv administration measured upto 24 hrs by LC-MS/MS analysis; type: ADME, organism-based; conditions: in vivo
Staphylococcus aureus [6] = test: as §1, with “reduction” for “appearance of inflated alveoli”, “histopathological change in spleen” for “lung”, “10” for “50”; type: functional, organism-based
[7] = system: Staphylococcus epidermidis; test: Antibacterial activity against methicillin resistant Staphylococcus epidermidis clinical isolate 20-1 assessed as inhibition of bacterial growth incubated for 7 days by alamar blue assay; type: functional; conditions: clinical isolate 20-1, 168 h, time 7 day
[8] = MRT (0 to t) in BALB/c mouse at 10 mg/kg,po administration measured upto 24 hrs by LC-MS/MS analysis; type: ADME, organism-based; conditions: in vivo
[9] = Cytotoxicity against African green monkey Vero cells incubated for 48 hrs by MTT assay; type: toxicity, cell-based, Chlorocebus sabaeus
Cell membrane [10] = test: Disruption of cell membrane integrity in methicillin resistant Staphylococcus aureus ATCC 33592 assessed as increase in blue fluorescence at 0.5 ug/ml incubated for 1 hr by […] and propidium iodide double staining based confocal microscopic analysis; type: cell membranes; conditions: dose 0.5 µg/ml
Staphylococcus aureus [11] = test: as §1, with “reduction” for “appearance of inflated alveoli”, “inflammatory cell infiltration in liver” for “lung”; type: functional, organism-based
Staphylococcus aureus [12] = test: Induction of resistant development in methicillin resistant Staphylococcus aureus ATCC 33592 assessed as fold increase in MIC at 0.5 to 4 ug/ml measured after 30 serial passages by broth microdilution analysis; type: functional; conditions: dose 0.5-4 µg/ml
Staphylococcus aureus [13] = test: Inhibition of biofilm formation in methicillin resistant Staphylococcus aureus ATCC 33592 at 0.1 to 10 ug/ml incubated for 48 hrs by crystal violet staining based assay; type: functional, organism-based; conditions: dose 0.1-10 µg/ml
Staphylococcus aureus [14] = test: Antibacterial activity against methicillin resistant Staphylococcus aureus ATCC 33592 infected in cyclophosphamide-induced immunosuppressed Kunming mouse assessed as decrease in IL-6 level at po administration measured after 24 hrs by ELISA; type: functional, organism-based
Staphylococcus aureus [15] = test: Antibacterial activity against Staphylococcus aureus ATCC25923 assessed as inhibition of bacterial growth incubated for 18 hrs by microdilution broth assay; type: functional
[16] = Cmax in BALB/c mouse at 10 mg/kg,po administration measured upto 24 hrs by LC-MS/MS analysis; type: ADME, organism-based; conditions: in vivo
[17] = MRT (0 to infinity) in BALB/c mouse at 1 mg/kg,iv administration measured upto 24 hrs by LC-MS/MS analysis; type: ADME, organism-based; conditions: in vivo
Staphylococcus aureus [18] = test: Inhibition of biofilm formation in Staphylococcus aureus ATCC 29213 at 1 to 10 ug/ml incubated for 48 hrs by crystal violet staining based assay; type: functional, organism-based; conditions: dose 1-10 µg/ml
[19] = system: Staphylococcus epidermidis; test: Antibacterial activity against Staphylococcus epidermidis ATCC12228 assessed as inhibition of bacterial growth incubated for 18 hrs by microdilution broth assay; type: functional
[20] = Metabolic stability in ICR mouse liver microsomes assessed as substrate remaining at 10 uM incubated for 60 mins in presence of NADPH by LC-MS/MS analysis; type: ADME, Microsome; conditions: read-out: Stability
Cell membrane [21] = test: Disruption of cell membrane integrity in Staphylococcus aureus ATCC 25923 assessed as increase in red fluorescence at 1 ug/ml incubated for 1 hr by […] and propidium iodide double staining based confocal microscopic analysis; type: cell membranes; conditions: dose 1.0 µg/ml
Staphylococcus aureus [22] = test: Antibacterial activity against methicillin resistant Staphylococcus aureus ATCC 33592 infected in cyclophosphamide-induced immunosuppressed Kunming mouse assessed as increase in IL-10 level at po administration measured after 24 hrs by ELISA; type: functional, organism-based
Staphylococcus aureus [23] = test: (§2) Antibacterial activity against methicillin resistant Staphylococcus aureus ATCC 33592 infected in cyclophosphamide-induced immunosuppressed Kunming mouse assessed as reduction in bacterial load in spleen at 10 to 50 mg/kg,po administration measured after 24 hrs by hematoxylin and eosin staining based microscopy; type: functional, organism-based; conditions: dose 10-50 mg/kg
Staphylococcus aureus [24] = test: as §2, with “pigment deposition” for “bacterial load”, “10” for “10 to 50”; type: functional, organism-based
Cell membrane [25] = test: Disruption of cell membrane integrity in Staphylococcus aureus ATCC 25923 assessed as increase in blue fluorescence at 0.5 ug/ml incubated for 1 hr by […] and propidium iodide double staining based confocal microscopic analysis; type: cell membranes; conditions: dose 0.5 µg/ml
Staphylococcus aureus [26] = test: Bacteriostatic activity against methicillin resistant Staphylococcus aureus ATCC 33592 at 1 times MIC incubated for 2 to 24 hrs by time-kill assay; type: functional, organism-based; conditions: time 2-24 hrs
Cell membrane [27] = test: Disruption of cell membrane integrity in methicillin resistant Staphylococcus aureus ATCC 33592 assessed as increase in red fluorescence at 0.5 ug/ml incubated for 1 hr by […] and propidium iodide double staining based confocal microscopic analysis; type: cell membranes; conditions: dose 0.5 µg/ml
Staphylococcus aureus [28] = test: Antibacterial activity against vancomycin intermediate Staphylococcus aureus ATCC700699 assessed as inhibition of bacterial growth incubated for 7 days by alamar blue assay; type: functional; conditions: ATCC700699, 168 h, time 7 day
[29] = Oral bioavailability in BALB/c mouse at 10 mg/kg administration measured upto 24 hrs by LC-MS/MS analysis; type: ADME, organism-based; conditions: BALB/c, in vivo
Cell membrane [30] = test: Disruption of cell membrane integrity in methicillin resistant Staphylococcus aureus ATCC 33592 assessed as increase in red fluorescence at 1 ug/ml incubated for 1 hr by […] and propidium iodide double staining based confocal microscopic analysis; type: cell membranes; conditions: dose 1.0 µg/ml
[31] = Terminal half life in BALB/c mouse at 10 mg/kg,po administration measured upto 24 hrs by LC-MS/MS analysis; type: ADME, organism-based; conditions: in vivo, read-out: beta t1/2 (converted)
Staphylococcus aureus [32] = test: Antibacterial activity against methicillin resistant Staphylococcus aureus ATCC 33592 infected in cyclophosphamide-induced immunosuppressed Kunming mouse by measuring survival rate of mouse at 50 mg/kg,po administration measured for 7 days; type: functional; conditions: ATCC 33592, 168 h, time 7 day
Staphylococcus aureus [33] = test: Inhibition of protein synthesis in Staphylococcus aureus ATCC 29213 by translation assay; type: functional, organism-based
[34] = Free AUC in BALB/c mouse at 10 mg/kg,po administration measured upto 24 hrs by LC-MS/MS analysis; type: ADME, organism-based; conditions: in vivo

CC(=O)NC[C@@H]1OC(=O)N2Cc3cc(-c4ccc(C#N)cc4)c(F)cc3O[C@@H]12
survival at 10 mg/kg (Staphylococcus aureus [1]): 85.7%
Tmax [2]: 2 h
Activity (Staphylococcus aureus [3]): Active
half-life [4]: 7.9 h
MIC (Enterococcus faecalis): 1 mg/L (≈ 2.62 µM)
MIC (Enterococcus): 0.5 mg/L (≈ 1.31 µM)
Cmax [5]: 0.814 µg/mL
Activity (Staphylococcus aureus [6]): Active
MIC [7]: 0.06 mg/L (≈ 0.157 µM)
MRT last at 24 h [8]: 9.3 h
IC50 at 48 h [9]: 35 mg/L (≈ 91.8 µM)
Activity (Cell membrane [10]): Active
Activity (Staphylococcus aureus [11]): Active
fold change (FC) (Staphylococcus aureus [12]): 8
inhibition (Staphylococcus aureus [13]): Active
Activity (Staphylococcus aureus [14]): Dose-Dependent Effect
MIC (Staphylococcus aureus [15]): 0.5 mg/L (≈ 1.31 µM)
Cmax [16]: 4.51 µg/mL
MRT inf [17]: 6.7 h
inhibition (Staphylococcus aureus [18]): Active
MIC [19]: 0.032 mg/L (≈ 0.0839 µM)
remaining at 1 h, 10 µM [20]: 100%
Activity (Cell membrane [21]): Active
Activity (Staphylococcus aureus [22]): Dose-Dependent Effect
Activity (Staphylococcus aureus [23]): Active
Activity (Staphylococcus aureus [24]): Active
Activity (Cell membrane [25]): Active
Activity (Staphylococcus aureus [26]): Active
Activity (Cell membrane [27]): Active
MIC (Staphylococcus aureus [28]): 0.5 mg/L (≈ 1.31 µM)
bioavailability [29]: 122%
Activity (Cell membrane [30]): Active
half-life [31]: 11.9 h
survival at 50 mg/kg (Staphylococcus aureus [32]): 100%
IC50 (Staphylococcus aureus [33]): 1.5 mg/L (≈ 3.93 µM)
fAUC [34]: 14.94 µg·h/mL

From ChEMBL document CHEMBL5608235, “Tricyclic Benzo[1,3]oxazinyloxazolidinones as Potent Antibacterial Agents against Drug-Resistant Pathogens” (J Med Chem, 2024)
